# *1 amine or outer side, *2 acyl side, *3 side chain or, on linkers, in order; H or OH if unused. Where a SMILES comes first, the peptide text is derived from it. Bridges are numbered along the chain shown (N, C = ends). [ ]: non-standard residue; d: D form. The star is where a group is joined. hPhe(3-Cl-4-CF3) = N[C@@H](CCc1ccc(C(F)(F)F)c(Cl)c1)C(=O)O; NPrPhe(4-CF3) = CCCN[C@@H](Cc1ccc(C(F)(F)F)cc1)C(=O)O; NEtPhe(4-CF3) = CCN[C@@H](Cc1ccc(C(F)(F)F)cc1)C(=O)O; X2 = C[C@@H]1CN([*:1])[C@@H]1C(=O)[*:2]; NMeGly(cPent) = CN[C@H](C(=O)O)C1CCCC1; NMeD = CN[C@@H](CC(=O)O)C(=O)O; NMeL = CN[C@@H](CC(C)C)C(=O)O; Morpholide = C1CN(*)CCO1; Ac5c = NC1(C(=O)O)CCCC1; Ac4c = NC1(C(=O)O)CCC1; Aib = CC(C)(N)C(=O)O; NEtG = CCNCC(=O)O; Sar = CNCC(=O)O
# How the values were obtained:
# [1] = target: GDP-bound NRAS wild-type protein (Homo sapiens, UniProt P01111); assay: Binding to NRAS by surface plasmon resonance (SPR), KD and KD ratio to KRAS
# Summary of the method: (§1)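 Compound binding is evaluated by SPR single-cycle kinetics, with concentrations added intermittently from low to high for 75 s each. Target surfaces carry GDP-loaded biotinylated Avi-RAS at about 100–300 RU, regenerated after each cycle; temperature 30°C. A 1:1 binding model gives KD.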
# [2] = target: GDP-bound KRAS wild-type protein (Homo sapiens, UniProt P01116); assay: Binding to KRAS by surface plasmon resonance (SPR), dissociation constant KD
# Summary of the method: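 Running buffer contained 10 µM GDP and 10 mM MgCl2 to keep RAS in the GDP state, with 4% DMSO at pH 7.4. Compounds were flowed at 100 µL/min in 75 s steps of rising concentration over captured biotin-Avi RAS at 30°C. Sensorgrams were fitted 1:1 for KD.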
# HRAS wild-type protein = HRAS wild-type protein (Homo sapiens, UniProt P01112); assay: Binding to HRAS by surface plasmon resonance (SPR), KD and KD ratio to KRAS
# Summary of the method: as §1
# [3] = test system: human lung cancer strain NCI-H441; type: cell-based
# Summary of the method: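 Proliferation was scored by […] measured after the reagent was added to cultures kept at 37°C in 5% carbon dioxide.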
# [4] = ratio of KD for GDP-bound NRAS wild-type protein to KD for KRAS
# [5] = ratio of KD for HRAS wild-type protein to KD for KRAS
# [6] = ratio of the KD value with respect to GDP-bound NRAS wild-type protein to the KD value with respect to KRAS
# [7] = Single Cycle Kinetics, 1:1 binding model
# [8] = ratio of the KD value with respect to HRAS wild-type protein to the KD value with respect to KRAS
# [9] = ratio of KD value for GDP-bound NRAS wild-type protein to KD value for KRAS (SPR)
# [10] = ratio of KD value for HRAS wild-type protein to KD value for KRAS (SPR)
# Chain of GDP-bound NRAS wild-type protein (P01111 whole entry): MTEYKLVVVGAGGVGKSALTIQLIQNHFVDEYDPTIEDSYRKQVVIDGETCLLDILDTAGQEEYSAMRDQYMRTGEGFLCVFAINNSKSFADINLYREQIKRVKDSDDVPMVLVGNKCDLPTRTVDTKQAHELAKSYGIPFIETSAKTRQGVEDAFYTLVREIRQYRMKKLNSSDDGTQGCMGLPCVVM
# Chain of HRAS wild-type protein (P01112 whole entry): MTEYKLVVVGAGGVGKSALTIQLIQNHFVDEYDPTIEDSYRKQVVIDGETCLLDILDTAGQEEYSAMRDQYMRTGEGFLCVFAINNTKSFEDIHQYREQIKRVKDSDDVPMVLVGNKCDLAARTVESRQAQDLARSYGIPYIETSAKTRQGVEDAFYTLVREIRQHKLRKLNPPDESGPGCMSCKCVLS
# Chain of GDP-bound KRAS wild-type protein (P01116 1-188 isoform P01116-2): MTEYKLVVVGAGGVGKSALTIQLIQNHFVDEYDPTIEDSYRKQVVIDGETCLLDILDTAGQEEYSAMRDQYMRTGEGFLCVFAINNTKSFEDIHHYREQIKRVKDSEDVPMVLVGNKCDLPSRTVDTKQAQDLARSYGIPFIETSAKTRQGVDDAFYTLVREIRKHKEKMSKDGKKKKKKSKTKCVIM
Compound,"NRAS /KRAS [1, 4]",Kd ([2]; 1:1 binding model) [nM],HRAS /KRAS (HRAS wild-type protein; [5]),IC50 [3] [nM],"NRAS /KRAS [1, 6]","Kd [2, 7] [nM]",HRAS /KRAS (HRAS wild-type protein; [8]),Kd ([2]; Single Cycle Kinetics) [nM],"NRAS /KRAS [1, 9]",HRAS /KRAS (HRAS wild-type protein; [10])
CC[C@H](C)[C@@H]1NC(=O)[C@H](CC(C)C)N(C)C(=O)C[C@@H](C(=O)N2CCOCC2)N(C)C(=O)[C@H](C2CCCC2)N(C)C(=O)C(C)(C)NC(=O)[C@@H]2CCCN2C(=O)[C@H](CCc2ccc(C(F)(F)F)c(Cl)c2)NC(=O)CN(C)C(=O)[C@H](Cc2ccc(C(F)(F)F)cc2)N(CC)C(=O)CN(C)C(=O)CN(C)C1=O [PP0235] ([NMeL]I[Sar][Sar][NEtPhe(4-CF3)][Sar][hPhe(3-Cl-4-CF3)]P[Aib][NMeGly(cPent)][NMeD]-Morpholide; lactam N-11),B (a compound having 3 or more and less than 10 is denoted as B),0.15,C (A compound having a KD ratio of 0.1 or more and less than 3 is denoted as C),4.5,,,,,,
CCO[C@@H]1C[C@H]2C(=O)NC3(CC(C)(C)C3)C(=O)N(C)[C@@H](C3CCCC3)C(=O)N(C)[C@H](C(=O)N(C)CC)CC(=O)N(C)[C@@H]([C@@H](C)OC)C(=O)N[C@@H]([C@@H](C)CC)C(=O)N(C)CC(=O)N(C)[C@H]3C/C=C\CCN(C3=O)[C@@H](Cc3ccc(C(F)(F)F)cc3)C(=O)N(C)CC(=O)N[C@@H](CCc3ccc(C(F)(F)F)c(OC)c3)C(=O)N2C1 [PP3158],A (a compound having 10 or more and less than 20 is denoted as A),0.076,A (a compound having 10 or more and less than 20 is denoted as A),9.7,,,,,,
CCCN1C(=O)CN(C)C(=O)[C@@H]2[C@H](C)CN2C(=O)[C@H]([C@@H](C)CC)NC(=O)[C@H](CC(C)C)N(C)C(=O)C[C@@H](C(=O)N2CCOCC2)N(C)C(=O)[C@H](C2CCCC2)N(C)C(=O)C2(CCCC2)NC(=O)[C@@H]2CCCN2C(=O)[C@H](CCc2ccc(C(F)(F)F)c(Cl)c2)NC(=O)CN(C)C(=O)[C@@H]1Cc1ccc(C(F)(F)F)cc1 [PP0257] ([NMeL]I[X2][Sar][NPrPhe(4-CF3)][Sar][hPhe(3-Cl-4-CF3)]P[Ac5c][NMeGly(cPent)][NMeD]-Morpholide; lactam N-11),B (a compound having 3 or more and less than 10 is denoted as B),1.4,B (a compound having 3 or more and less than 10 is denoted as B),30.8,,,,,,
CCCOC[C@H]1C(=O)N[C@@H]([C@@H](C)CC)C(=O)N(C)CC(=O)N(C)[C@H]2C/C=C\CCN(C2=O)[C@@H](Cc2ccc(C(F)(F)F)cc2)C(=O)N(C)CC(=O)N[C@@H](CCc2ccc(C(F)(F)F)c(OC)c2)C(=O)N2C[C@@H](C)C[C@H]2C(=O)NC2(CCC2)C(=O)N(C)[C@@H](C2CCCC2)C(=O)N(C)[C@H](C(=O)N(C)CC)CC(=O)N1C [PP2027],,,,14,A (a compound having 10 or more and less than 20 is denoted as A),0.11,B (a compound having 3 or more and less than 10 is denoted as B),,,
CCC(CC)[C@H]1C(=O)N(C)[C@H](C(=O)N(C)C)CC(=O)N(C)[C@@H](COC)C(=O)N[C@@H]([C@@H](C)CC)C(=O)N(C)CC(=O)N(C)[C@H]2C/C=C\CCN(C2=O)[C@@H](Cc2ccc(C)cc2)C(=O)N(C)CC(=O)N[C@@H](CCc2ccc(Cl)c(Cl)c2)C(=O)N2C[C@H](OC(C)C)C[C@H]2C(=O)N(C)C2(CC(C)(C)C2)C(=O)N1C [PP2814],AA (a compound having 20 or more is denoted as AA),0.37,A (a compound having 10 or more and less than 20 is denoted as A),44.4,,,,,,
CCC[C@H]1C(=O)N[C@@H]([C@@H](C)CC)C(=O)N(CCC)CC(=O)N(C)[C@H]2C/C=C\CCN(C2=O)[C@@H](Cc2ccc(C)cc2)C(=O)N(C)CC(=O)N[C@@H](CCc2cc(F)c(C(F)(F)F)c(F)c2)C(=O)N2C[C@H](OCC)C[C@H]2C(=O)NC2(CC(C)(C)C2)C(=O)N(C)[C@@H](C2CCCC2)C(=O)N(C)[C@H](C(=O)N(C)C)CC(=O)N1C [PP2108],,,,17.6,A (a compound having 10 or more and less than 20 is denoted as A),0.34,A (a compound having 10 or more and less than 20 is denoted as A),,,
CCCN1C(=O)CN(CC)C(=O)CN(C)C(=O)[C@H]([C@@H](C)CC)NC(=O)[C@H](CC(C)C)N(C)C(=O)C[C@@H](C(=O)N2CCOCC2)N(C)C(=O)[C@H](C2CCCC2)N(C)C(=O)C2(CCC2)NC(=O)[C@@H]2CCCN2C(=O)[C@H](CCc2ccc(C(F)(F)F)c(Cl)c2)NC(=O)CN(C)C(=O)[C@@H]1Cc1ccc(C(F)(F)F)cc1 [PP1948] ([NMeL]I[Sar][NEtG][NPrPhe(4-CF3)][Sar][hPhe(3-Cl-4-CF3)]P[Ac4c][NMeGly(cPent)][NMeD]-Morpholide; lactam N-11),,,,16.2,C (A compound having a KD ratio of 0.1 or more and less than 3 is denoted as C),0.41,C (A compound having a KD ratio of 0.1 or more and less than 3 is denoted as C),,,
CCO[C@@H]1C[C@H]2C(=O)NC3(CCC3)C(=O)N(C)[C@@H](C3CCCC3)C(=O)N(C)[C@H](C(=O)N(C)C)CC(=O)N(C)[C@@H](Cc3ccccc3C)C(=O)N[C@@H]([C@@H](C)CC)C(=O)N(C)CC(=O)N(C)[C@H]3CCCCCN(C3=O)[C@@H](Cc3ccc(C(F)(F)F)cc3)C(=O)N(C)CC(=O)N[C@@H](CCc3cc(F)c(C(F)(F)F)c(F)c3)C(=O)N2C1 [PP0941],B (a compound having 3 or more and less than 10 is denoted as B),,B (a compound having 3 or more and less than 10 is denoted as B),63.9,,,,1.2,,
CC[C@H](C)[C@@H]1NC(=O)[C@H](CC)N(C)C(=O)C[C@@H](C(=O)N(C)C)N(C)C(=O)[C@H](C2CCCC2)N(C)C(=O)C2(CCCC2)N(C)C(=O)[C@@H]2C[C@@H](C)CN2C(=O)[C@H](CCc2cc(F)c(C(F)(F)F)c(F)c2)NC(=O)CN(C)C(=O)[C@H](Cc2ccc(C)cc2)N2CC/C=C\C[C@@H](C2=O)N(C)C(=O)CN(C)C1=O [PP1812],,,,7.8,,0.59,,,A (a compound having 10 or more and less than 20 is denoted as A),A (a compound having 10 or more and less than 20 is denoted as A)
CCO[C@@H]1C[C@H]2C(=O)NC3(CC(C)(C)C3)C(=O)N(C)[C@@H](C3CCCC3)C(=O)N(C)[C@H](C(=O)N(C)C)CC(=O)N(C)[C@@H]([C@H](C)OC)C(=O)N[C@@H]([C@@H](C)CC)C(=O)N(C)CC(=O)N(C)[C@H]3C/C=C\CCN(C3=O)[C@@H](Cc3ccc(C)cc3)C(=O)N(C)CC(=O)N[C@@H](CCc3cc(F)c(C(F)(F)F)c(F)c3)C(=O)N2C1 [PP3187],A (a compound having 10 or more and less than 20 is denoted as A),0.082,A (a compound having 10 or more and less than 20 is denoted as A),10.4,,,,,,
CCO[C@@H]1C[C@H]2C(=O)NC3(CC(C)(C)C3)C(=O)N(C)[C@@H](C3CCCC3)C(=O)N(C)[C@H](C(=O)N(C)CC)CC(=O)N(C)[C@@H]([C@H](C)OC)C(=O)N[C@@H]([C@@H](C)CC)C(=O)N3CCC[C@H]3C(=O)N(C)[C@H]3C/C=C\CCN(C3=O)[C@@H](Cc3ccc(C)cc3)C(=O)N(C)CC(=O)N[C@@H](CCc3cc(F)c(C(F)(F)F)c(F)c3)C(=O)N2C1 [PP3163],A (a compound having 10 or more and less than 20 is denoted as A),1.8,A (a compound having 10 or more and less than 20 is denoted as A),296,,,,,,
CCO[C@@H]1C[C@H]2C(=O)NC3(CCC3)C(=O)N(C)[C@@H](C3CCCC3)C(=O)N(C)[C@H](C(=O)N(C)C)CC(=O)N(CC)[C@@H](CC(C)C)C(=O)N[C@@H]([C@@H](C)CC)C(=O)N(C)CC(=O)N(C)[C@H]3CC(C)=C(C)CN(C3=O)[C@@H](Cc3ccc(C(F)(F)F)cc3)C(=O)N(C)CC(=O)N[C@@H](CCc3cc(F)c(C(F)(F)F)c(F)c3)C(=O)N2C1 [PP1051],C (A compound having a KD ratio of 0.1 or more and less than 3 is denoted as C),,C (A compound having a KD ratio of 0.1 or more and less than 3 is denoted as C),286,,,,1.8,,
CC[C@H](C)[C@@H]1NC(=O)[C@H](CC)N(C)C(=O)C[C@@H](C(=O)N2CCOCC2)N(C)C(=O)[C@H](C2CCCC2)N(C)C(=O)C2(CCCC2)NC(=O)[C@@H]2CCCN2C(=O)[C@H](CCc2cc(F)c(C(F)(F)F)c(F)c2)NC(=O)CN(C)C(=O)[C@H](Cc2ccc(C(F)(F)F)cc2)N2CCCC[C@@H](C2=O)N(C)C(=O)CN(C)C1=O [PP0550],,,,4.9,B (a compound having 3 or more and less than 10 is denoted as B),0.057,B (a compound having 3 or more and less than 10 is denoted as B),,,
CCO[C@@H]1C[C@H]2C(=O)NC3(CC(C)(C)C3)C(=O)N(C)[C@@H](C3CCCC3)C(=O)N(C)[C@@H](C(C)C)CC(=O)N(C)[C@@H](CC3CC3)C(=O)N[C@@H]([C@@H](C)CC)C(=O)N(C)CC(=O)N(C)[C@H]3C/C=C\CCN(C3=O)[C@@H](Cc3ccc(C(F)(F)F)cc3)C(=O)N(C)CC(=O)N[C@@H](CCc3cc(F)c(C(F)(F)F)c(F)c3)C(=O)N2C1 [PP1594],,,,48.8,,0.71,,,A (a compound having 10 or more and less than 20 is denoted as A),A (a compound having 10 or more and less than 20 is denoted as A)
